Data as given in patent publication US12686665B2, “Bicyclic fused ring derivative or salt thereof and pharmaceutical composition comprising same” (YUHAN CORPORATION, priority 2021, dated 2026).
Where a name gives a salt, the structure may show the parent alone.

Assays:
Assay type in all cases: biochemical
[1] = molecular target: T1, recombinant human MAO-A (monoamine oxidase-A) (Homo sapiens, UniProt P21397); experiment: Amplex Red HRP-coupled amine oxidase assay, recombinant human MAO-A; details: 0.5 mM tyramine substrate, read-out: Inhibitory activity (IC50, nM) MAO-A
T1 construct: purchased Sigma-Aldrich
T1 sequence (P21397 1-527): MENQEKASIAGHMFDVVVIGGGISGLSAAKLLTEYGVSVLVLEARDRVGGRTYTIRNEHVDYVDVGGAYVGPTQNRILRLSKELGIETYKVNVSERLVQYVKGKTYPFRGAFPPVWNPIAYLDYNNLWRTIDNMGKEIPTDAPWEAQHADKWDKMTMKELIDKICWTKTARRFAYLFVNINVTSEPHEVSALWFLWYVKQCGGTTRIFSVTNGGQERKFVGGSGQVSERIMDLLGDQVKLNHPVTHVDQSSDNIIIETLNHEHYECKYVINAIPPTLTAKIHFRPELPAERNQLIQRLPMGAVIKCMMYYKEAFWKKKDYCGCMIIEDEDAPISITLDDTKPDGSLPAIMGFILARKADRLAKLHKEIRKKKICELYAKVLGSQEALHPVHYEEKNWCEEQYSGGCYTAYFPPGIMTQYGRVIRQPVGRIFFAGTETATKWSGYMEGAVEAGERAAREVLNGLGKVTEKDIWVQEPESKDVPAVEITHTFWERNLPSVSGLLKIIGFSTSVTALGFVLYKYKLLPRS
Protocol: (§1) The activities of the compounds according to the present invention against recombinant human Lysyl Oxidase-Like 2 (recombinant human LOXL2, R&D systems) were evaluated by measuring the levels of hydrogen peroxide in the HRP (horseradish peroxidase) coupled reactions, with the Amplex Red Hydrogen Peroxide Assay Kit (Molecular Probes, Invitrogen, USA). The tests were carried out at 37° C., and putrescine was used as a substrate. In the HRP coupling reaction, the oxidation of 10-acetyl-3,7-dihydroxyphenoxazine (Amplex Red reagent) by hydrogen peroxide generates a fluorescent product, i.e., resorufin. Briefly, the test compounds were dissolved in dimethyl sulfoxide (DMSO) at a concentration of 20 mM. Dose-response measurements were carried out by serial dilutions in DMSO to generate a six-point curve. The upper concentration was adjusted according to the potency of the compound, and then diluted with the reaction buffer to obtain a final DMSO concentration of 1%. Purified human LOXL2 in 50 mM sodium phosphate buffer (pH7.4) was added to each well of a 96 well black plate. The test compounds dissolved in DMSO were incubated with the human LOXL2 enzyme at 37° C. for 60 minutes. After the incubation for 60 minutes, a reaction mixture containing 400 μM Amplex Red reagent, 30 mM putrescine, and 2 U/mL HRP in 50 mM sodium phosphate buffer (pH 7.4) was added to each well. Fluorescence was measured with a microplate reader (Flexstation3, Molecular Devices), under the conditions of excitation at 530 nm and emission at 590 nm, 1 hour after the addition of the mixture. Inhibition by each compound was measured as % reduction in signal, compared to the control without an inhibitor (diluted DMSO only). The data were fixed to a four-variable logistic model, and […] values were calculated using the GraphPad Prism program.
(§2) And, the activities of the compounds according to the present invention against recombinant human MAO-A (monoamine oxidase-A, Sigma-Aldrich) and recombinant human MAO-B (monoamine oxidase-B, Sigma-Aldrich) were evaluated in a similar manner to the activity evaluation method for recombinant human LOXL2, using 0.5 mM tyramine and 1 mM benzylamine as a substrate, respectively. In addition, the activities of the compounds according to the present invention against recombinant human DAO (diamine oxidase, R&D systems) were evaluated in a similar manner to the activity evaluation method for recombinant human LOXL2, using 1 mM putrescine as a substrate.

[2] = molecular target: T2, recombinant human DAO (diamine oxidase) (Homo sapiens, UniProt P19801); experiment: Amplex Red HRP-coupled amine oxidase assay, recombinant human DAO; details: 1 mM putrescine substrate, read-out: Inhibitory activity (IC50, nM) DAO
T2 construct: purchased R&D systems
T2 sequence (P19801 20-751): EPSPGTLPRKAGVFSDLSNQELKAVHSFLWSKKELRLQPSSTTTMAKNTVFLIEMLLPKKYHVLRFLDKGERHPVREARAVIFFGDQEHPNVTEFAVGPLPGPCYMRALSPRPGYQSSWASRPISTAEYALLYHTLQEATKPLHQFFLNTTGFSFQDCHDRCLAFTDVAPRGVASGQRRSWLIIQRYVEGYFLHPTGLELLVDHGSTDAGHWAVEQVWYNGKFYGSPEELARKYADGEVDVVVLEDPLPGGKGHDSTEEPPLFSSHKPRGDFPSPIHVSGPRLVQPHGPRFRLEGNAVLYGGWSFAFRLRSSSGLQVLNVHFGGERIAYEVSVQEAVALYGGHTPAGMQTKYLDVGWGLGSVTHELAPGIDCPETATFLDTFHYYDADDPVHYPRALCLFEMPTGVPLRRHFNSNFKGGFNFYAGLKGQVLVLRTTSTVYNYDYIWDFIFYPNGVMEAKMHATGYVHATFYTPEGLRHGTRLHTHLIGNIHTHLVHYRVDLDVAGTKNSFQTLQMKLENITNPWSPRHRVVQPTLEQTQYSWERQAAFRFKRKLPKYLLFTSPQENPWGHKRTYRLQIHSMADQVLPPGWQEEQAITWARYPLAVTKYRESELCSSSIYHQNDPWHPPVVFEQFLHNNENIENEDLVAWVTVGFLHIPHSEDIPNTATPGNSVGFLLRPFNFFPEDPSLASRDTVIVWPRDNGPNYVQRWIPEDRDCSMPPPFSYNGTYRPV
Protocol: as §1, §2

[3] = molecular target: T3, recombinant human MAO-B (monoamine oxidase-B) (Homo sapiens, UniProt P27338); experiment: Amplex Red HRP-coupled amine oxidase assay, recombinant human MAO-B; details: 1 mM benzylamine substrate, read-out: Inhibitory activity (IC50, nM) MAO-B
T3 construct: purchased Sigma-Aldrich
T3 sequence (P27338 1-520): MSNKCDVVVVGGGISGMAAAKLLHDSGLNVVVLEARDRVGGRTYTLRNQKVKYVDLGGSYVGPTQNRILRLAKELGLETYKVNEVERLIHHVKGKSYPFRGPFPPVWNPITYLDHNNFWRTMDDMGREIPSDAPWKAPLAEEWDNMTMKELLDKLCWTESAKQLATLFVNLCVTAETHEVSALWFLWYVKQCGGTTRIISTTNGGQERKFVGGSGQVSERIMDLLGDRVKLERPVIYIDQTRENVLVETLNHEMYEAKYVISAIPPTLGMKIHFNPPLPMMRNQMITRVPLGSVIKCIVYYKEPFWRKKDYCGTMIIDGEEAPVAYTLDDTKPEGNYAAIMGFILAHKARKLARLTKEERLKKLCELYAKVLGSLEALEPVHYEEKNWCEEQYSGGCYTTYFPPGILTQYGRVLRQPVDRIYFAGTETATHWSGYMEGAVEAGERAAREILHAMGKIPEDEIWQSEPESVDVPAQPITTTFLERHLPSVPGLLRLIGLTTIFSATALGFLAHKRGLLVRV
Protocol: as §1, §2

[4] = molecular target: T4, recombinant human Lysyl Oxidase-Like 2 (LOXL2) (Homo sapiens, UniProt Q9Y4K0); experiment: Amplex Red HRP-coupled amine oxidase assay, recombinant human LOXL2; details: 60 min incubation with enzyme at 37° C., putrescine substrate, read-out: Inhibitory activity (IC50, nM) human LOXL2
T4 construct: purchased R&D systems
T4 sequence (Q9Y4K0 26-774): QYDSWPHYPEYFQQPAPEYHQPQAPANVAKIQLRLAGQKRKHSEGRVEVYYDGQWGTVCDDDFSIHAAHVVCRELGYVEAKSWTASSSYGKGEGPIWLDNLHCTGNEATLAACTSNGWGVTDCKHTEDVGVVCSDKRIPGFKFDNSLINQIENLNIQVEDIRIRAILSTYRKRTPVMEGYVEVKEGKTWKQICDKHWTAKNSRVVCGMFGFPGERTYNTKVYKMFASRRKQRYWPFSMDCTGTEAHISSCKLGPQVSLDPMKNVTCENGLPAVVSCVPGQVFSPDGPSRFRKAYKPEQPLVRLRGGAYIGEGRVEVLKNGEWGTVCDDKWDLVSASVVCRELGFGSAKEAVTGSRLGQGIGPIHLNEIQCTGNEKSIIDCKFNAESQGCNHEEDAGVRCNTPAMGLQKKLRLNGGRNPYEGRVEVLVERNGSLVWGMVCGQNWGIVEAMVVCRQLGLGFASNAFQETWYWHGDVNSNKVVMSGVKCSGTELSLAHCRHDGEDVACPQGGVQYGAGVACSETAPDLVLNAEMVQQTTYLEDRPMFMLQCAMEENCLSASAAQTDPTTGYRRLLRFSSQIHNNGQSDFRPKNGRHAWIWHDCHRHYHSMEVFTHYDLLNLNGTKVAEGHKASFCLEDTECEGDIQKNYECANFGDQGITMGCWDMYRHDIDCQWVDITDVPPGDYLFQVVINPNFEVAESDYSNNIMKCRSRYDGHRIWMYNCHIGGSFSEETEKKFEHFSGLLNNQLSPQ
How it was run: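 Putrescine substrate (30 mM) in 50 mM sodium phosphate pH 7.4, 37 °C; compounds preincubated 60 min with enzyme, 1% DMSO final, six-point curves. H2O2 detected via 400 μM Amplex Red/2 U/mL HRP, fluorescence (ex 530/em 590 nm) after 1 h; IC50 from four-parameter logistic fit of % signal reduction.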

SMILES	IC50 [1] [nM]	IC50 [2] [nM]	IC50 [3] [nM]	IC50 [4] [nM]
COc1ccc(S(=O)(=O)NC2CC2)cc1-c1cccc2c1nnn2C/C(F)=C/CN [Example 108, (Z)-3-(1-(4-amino-2-fluorobut-2-en-1-yl)-1H-benzo[d][1,2,3]triazol-4-yl)-N-cyclopropyl-4-methoxybenzenesulfonamide hydrochloride]	> 100000	> 100000	> 100000	42
CNS(=O)(=O)c1ccc(OC)c(-c2cc(C(=O)OC)cc3c2ncn3C/C(F)=C/CN)c1 [Example 24, methyl (Z)-1-(4-amino-2-fluorobut-2-en-1-yl)-4-(2-methoxy-5-(N-methylsulfamoyl)phenyl)-1H-benzo[d]imidazol-6-carboxylate hydrochloride]	> 100000	21800	> 100000	15.9
COC(=O)c1cc(-c2cccc(S(=O)(=O)NC3CC3)c2)c2ncn(C/C(F)=C/CN)c2c1 [Example 29, methyl (Z)-1-(4-amino-2-fluorobut-2-en-1-yl)-4-(3-(N-cyclopropylsulfamoyl)phenyl)-1H-benzo[d]imidazol-6-carboxylate hydrochloride]	> 100000	1370	> 100000	34.9
COC(=O)c1cc(-c2cc(S(=O)(=O)C(F)(F)F)ccc2C)c2ncn(C/C(F)=C/CN)c2c1 [Example 35, methyl (Z)-1-(4-amino-2-fluorobut-2-en-1-yl)-4-(2-methyl-5-((trifluoromethyl)sulfonyl)phenyl)-1H-benzo[d]imidazol-6-carboxylate hydrochloride]	> 100000	47700	> 100000	67.6
CNS(=O)(=O)c1ccc(OC)c(-c2cc(C#N)cc3c2ncn3C/C(F)=C/CN)c1 [Example 183, (Z)-3-(1-(4-amino-2-fluorobut-2-en-1-yl)-6-cyano-1H-benzo[d]imidazol-4-yl)-4-methoxy-N-methylbenzenesulfonamide hydrochloride]	> 100000	1820	> 100000	35.1

Stronger by IC50 [1], values ahead:

IC50 [1] [nM]	IC50 [2] [nM]	IC50 [3] [nM]	IC50 [4] [nM]	SMILES
86600	37400	12400	17	COc1ccc(-c2cccc3c2nnn3C/C(F)=C/CN)cc1S(=O)(=O)N(C)C [Example 102, (Z)-5-(1-(4-amino-2-fluorobut-2-en-1-yl)-1H-benzo[d][1,2,3]triazol-4-yl)-2-methoxy-N,N-dimethylbenzenesulfonamide hydrochloride]
12400	24600	> 100000	58	Cc1nc2c(-c3cccc(S(=O)(=O)N(C)C)c3)cc(C(=O)N(C)C)cc2n1C/C(F)=C/CN [Example 76, (Z)-1-(4-amino-2-fluorobut-2-en-1-yl)-4-(3-(N,N-dimethylsulfamoyl)phenyl)-N,N,2-trimethyl-1H-benzo[d]imidazol-6-carboxamide hydrochloride]
12200	380	> 100000	22.7	COC(=O)c1cc(-c2ccc(OC)c(S(=O)(=O)N(C)C)c2)c2ncn(C/C(F)=C/CN)c2c1 [Example 21, methyl (Z)-1-(4-amino-2-fluorobut-2-en-1-yl)-4-(3-(N,N-dimethylsulfamoyl)-4-methoxyphenyl)-1H-benzo[d]imidazol-6-carboxylate hydrochloride]
9060	27900	23500	25	NC/C=C(\F)Cn1nnc2c(-c3cccc(S(=O)(=O)N4CCC(F)(F)C4)c3)cccc21 [Example 103, (Z)-4-(4-(3-((3,3-difluoropyrrolidin-1-yl)sulfonyl)phenyl)-1H-benzo[d][1,2,3]triazol-1-yl)-3-fluorobut-2-en-1-amine hydrochloride]
7890	1610	> 100000	28	COC(=O)c1cc(-c2cccc(S(=O)(=O)N(C)C)c2)c2nc(C)n(C/C(F)=C/CN)c2c1 [Example 66, methyl (Z)-1-(4-amino-2-fluorobut-2-en-1-yl)-4-(3-(N,N-dimethylsulfamoyl)phenyl)-2-methyl-1H-benzo[d]imidazol-6-carboxylate hydrochloride]
